# Test results from US20180264001A1 (Teva Pharmaceuticals International GmbH, priority 2015, published 2018).
# Details: Canine plasma +1% Tocophersolan, 37° C.
# Description: Samples were protected from light under constant agitation using a vortex mixer. The stability of the API under these conditions was assessed at timed intervals (T=0, 2, 4, 21, 24 hours and 2 and 3 days).
compound,measurement,value
Cc1cc2c(s1)Nc1ccccc1N=C2N1CCN(C)CC1.O.O=C(O)c1cc2ccccc2c(Cc2c(O)c(C(=O)O)cc3ccccc23)c1O [olanzapine pamoate monohydrate],Concentration (saturated solubility),817.47 µg/mL
